Measured values published in ChEMBL document CHEMBL1857833, “Screening and optimization of specific chemical series against human African Trypanosomiasis (HAT)”.
In brackets after ≈: the same amount, converted by molar mass.

System: not listed separately
Experiment: DNDI: Cytotoxicity against L929 mouse fibroblasts, 72 hour.
Type: toxicity, cell-based
Conditions: mouse, L929 mouse fibroblasts

| SMILES | IC50 at 72 h [µg/mL] |
| --- | --- |
| COc1ccc(/C(=N/O)Nc2cccc(C)c2)cc1 | > 10 |
| O/N=C1\COc2ccccc21 | > 10 |
| CCCCc1ccc(-c2nc(CNCCCN3CCCCC3)co2)cc1 | 6.2 (≈ 17.4 µM) |
| COc1ccc(/C=N/OCc2c(F)c(F)c(F)c(F)c2F)cc1 | > 10 |
| CCCCc1ccc(-c2nc(CNCCCN3CCCC3)co2)cc1 | 6.03 (≈ 17.7 µM) |
| Fc1c(F)c(F)c(CO/N=C/c2ccccc2-c2ccccc2)c(F)c1F | > 10 |
| C(=N\Oc1ccccc1)/c1ccccc1-c1ccccc1 | > 10 |
| CCCCc1ccc(-c2nc(C)c(C(=O)OC)o2)cc1 | > 10 |
| CCCCc1ccc(-c2nc(-c3ccccc3)c(-c3ccccc3)o2)cc1 | > 10 |
| CCCCc1ccc(-c2nc(CNCc3ccc(C)cc3)co2)cc1 | 2.63 (≈ 7.86 µM) |
| CCCCc1ccc(-c2nc(CNCc3ccc(Cl)cc3)co2)cc1 | 7.38 (≈ 20.8 µM) |
| COc1ccc(/C(=N/O)Nc2cccc(C(C)(C)C)c2)cc1 | 3.91 (≈ 13.1 µM) |

System: Trypanosoma brucei
Experiment: DNDI: Inhibition of Human African Trypanosomiasis, SBRI 427, in vitro
Type: functional, organism-based
Conditions: not given

| SMILES | IC50 [µg/mL] |
| --- | --- |
| CCCCc1ccc(-c2nc(CNCCCN3CCCCC3)co2)cc1 | 1.48 (≈ 4.16 µM) |
| CCCCc1ccc(-c2nc(CNCCCN3CCCC3)co2)cc1 | 0.89 (≈ 2.61 µM) |

Same assay, conditions: Trypanosoma brucei, SBRI 427; read-out: IC50

| SMILES | IC50 [µg/mL] |
| --- | --- |
| CCC(CC)N/C(=N\O)c1cccnc1Oc1ccccc1F | 0.43 (≈ 1.35 µM) |
| O/N=C(\NC1CCC1)c1ccnc(Oc2cc(Cl)ccc2Cl)c1 | 0.6 (≈ 1.7 µM) |
| O/N=C(\NC1CCCCC1)c1ccnc(Oc2ccc(F)c(F)c2)c1 | > 5 |
| Cc1ccc(/C(=N/O)NCCN2CCCC2)c(Oc2ccc(F)cc2)n1 | 37.5 (≈ 105 µM) |
| Cc1ccc(Oc2nc(C)ccc2/C(=N/O)NC2CCCC2)cc1 | 6.96 (≈ 21.4 µM) |
| O/N=C1\COc2ccccc21 | > 5 |
| CCCCc1ccc(-c2nc(CNCCCN3CCCCC3)co2)cc1 | 2.01 (≈ 5.65 µM) |
| Cc1ccc(Oc2cc(/C(=N/O)N3CCCCCC3)ccn2)c(C)c1 | > 5 |
| CCCC(CCC)NCc1coc(-c2ccccc2OCC)n1 | 1.76 (≈ 5.56 µM) |
| O/N=C(/c1ccnc(Oc2cccc3c2CCCC3)c1)N1CCSCC1 | > 5 |
| O/N=C(\NC1CCCCC1)c1ccc(Oc2ccc3ccccc3c2)nc1 | > 5 |
| C[C@H]1C(NCc2coc(-c3ccc(O)cc3)n2)C[C@@H]2C[C@H]1C2(C)C (stereo partly drawn) | 1.36 (≈ 4.17 µM) |
| COc1ccc(/C=N/OCc2c(F)c(F)c(F)c(F)c2F)cc1 | > 5 |
| O/N=C(\NC1CCCC1)c1ccc(Oc2c(F)c(F)cc(F)c2F)nc1 | 3.8 (≈ 10.3 µM) |
| CCc1ccc(Oc2ccc(/C(=N/O)NC3CCCC3)cn2)cc1 | 40.8 (≈ 126 µM) |
| O/N=C(\NC1CCCC1)c1ccnc(Oc2ccc(Cl)cc2)c1 | 5 (≈ 15.1 µM) |
| CCC(CC)N/C(=N\O)c1ccc(Oc2cc(C)cc(C)c2)nc1 | 1.61 (≈ 4.92 µM) |
| CC(C)(C)CN/C(=N\O)c1ccnc(Oc2ccc(F)c(Cl)c2)c1 | 2.73 (≈ 7.76 µM) |
| O/N=C(\NCc1cccnc1)c1ccc(Oc2ccc3oc4ccccc4c3c2)nc1 | 3.79 (≈ 9.23 µM) |
| CCCCc1ccc(-c2nc(CNCCCN3CCCC3)co2)cc1 | 1.6 (≈ 4.69 µM) |
| O/N=C(\NC1CCCC1)c1ccnc(Oc2cccc(F)c2)c1 | 2.27 (≈ 7.2 µM) |
| O/N=C(\NCc1c(F)cccc1F)c1cccnc1Oc1ccc(F)cc1 | 2.18 (≈ 5.84 µM) |
| C[C@H]1C(NCc2coc(-c3cccc(F)c3)n2)C[C@@H]2C[C@H]1C2(C)C (stereo partly drawn) | 1.56 (≈ 4.75 µM) |
| CCC(CC)N/C(=N\O)c1ccnc(Oc2ccc(OC)cc2)c1 | 3.65 (≈ 11.1 µM) |

| SMILES | IC50 [µg/mL] |
| --- | --- |
| O/N=C(\NC1CCCC1)c1cccnc1Oc1ccccc1F | 18.2 (≈ 57.8 µM) |
| C[C@@H]1C(NCc2coc(-c3cccc(F)c3)n2)C[C@H]2C[C@@H]1C2(C)C (stereo partly drawn) | 1.18 (≈ 3.59 µM) |
| O/N=C(\NC1CCCCC1)c1ccnc(Oc2ccc(Cl)cc2)c1 | 2.4 (≈ 6.94 µM) |
| O/N=C(\NC1CCCCC1)c1ccc(Oc2c(F)c(F)cc(F)c2F)nc1 | 4.06 (≈ 10.6 µM) |
| Fc1c(F)c(F)c(CO/N=C/c2ccccc2-c2ccccc2)c(F)c1F | > 5 |
| C(=N\Oc1ccccc1)/c1ccccc1-c1ccccc1 | > 5 |
| O/N=C(\NC1CCC1)c1ccc(Oc2ccc3oc4ccccc4c3c2)nc1 | 1.06 (≈ 2.84 µM) |
| CCC(C)(C)N/C(=N\O)c1ccc(Oc2cccc3ccccc23)nc1 | 0.86 (≈ 2.46 µM) |
| CC(C)(C)CN/C(=N\O)c1ccnc(Oc2cccc(F)c2)c1 | 2.19 (≈ 6.9 µM) |
| Cc1cc(C)cc(CN/C(=N\O)c2ccc(C)nc2OCc2ccccn2)c1 | 2.79 (≈ 7.41 µM) |
| C=CCc1ccc(Oc2cc(/C(=N/O)NCc3ccc(OC)cc3)ccn2)c(OC)c1 | > 5 |
| O/N=C(\NC1CCc2ccccc21)c1cccnc1Oc1ccc2ccccc2c1 (stereo not drawn) | 1.47 (≈ 3.72 µM) |
| O/N=C(\NC1CCCC1)c1ccc(Oc2cccc3c2CCCC3)nc1 | 0.31 (≈ 0.882 µM) |
| O/N=C(\NCC1CCCCC1)c1ccc(Oc2ccc(-n3ccnc3)cc2)nc1 | 1.43 (≈ 3.65 µM) |
| CC(C)c1ccc(Oc2ncccc2/C(=N/O)NCc2c(F)cccc2F)cc1 | > 5 |
| O/N=C(\NCc1ccccc1)c1cccnc1Oc1ccc(F)cc1Cl | 0.62 (≈ 1.67 µM) |
| CCC(CC)N/C(=N\O)c1cccnc1Oc1ccccc1SC | 0.41 (≈ 1.19 µM) |
| O/N=C(\NCC1CCCCC1)c1ccnc(Oc2ccc(Cl)cc2)c1 | 3.98 (≈ 11.1 µM) |
| CCc1ccc(Oc2ccc(/C(=N/O)NCC3CC3)cn2)cc1 | 0.37 (≈ 1.19 µM) |
| Cc1cc(Oc2ccc(/C(=N/O)N3CCCC3C)cn2)cc(C(C)C)c1 (stereo not drawn) | > 5 |
| Cc1ccc(/C(=N/O)NC2CCCC2)c(Oc2ccc3oc4ccccc4c3c2)n1 | 0.67 (≈ 1.67 µM) |
| CC(C)c1cccc(Oc2cc(/C(=N/O)N3CCN(c4ccccc4)CC3)ccn2)c1 | 2.91 (≈ 6.99 µM) |
| COCC(C)N/C(=N\O)c1ccc(Oc2ccc3ccccc3c2)nc1 (stereo not drawn) | > 5 |
| Cc1ccc2cccc(Oc3cc(/C(=N/O)NC4CCC(C)CC4)ccn3)c2n1 (stereo not drawn) | 4.86 (≈ 12.4 µM) |

| SMILES | IC50 [µg/mL] |
| --- | --- |
| O/N=C(\NC1CC1)c1cccnc1Oc1ccccc1F | 4.25 (≈ 14.8 µM) |
| O/N=C(\NCC1CC1)c1ccc(Oc2cccc3c2CCCC3)nc1 | 0.53 (≈ 1.57 µM) |
| COc1ccc(Oc2cc(/C(=N/O)NCC(C)C)ccn2)cc1 | > 5 |
| C[C@H]1C(NCc2coc(-c3cccs3)n2)C[C@@H]2C[C@H]1C2(C)C (stereo partly drawn) | 2.27 (≈ 7.17 µM) |
| CCC(CC)N/C(=N\O)c1cccnc1Oc1ccccc1OC | 0.59 (≈ 1.79 µM) |
| O/N=C(\NCC1CCCCC1)c1cccnc1Oc1ccc(-n2cncn2)cc1 | 0.59 (≈ 1.5 µM) |
| O/N=C(\NC1CCC1)c1ccc(Oc2ccc3ccccc3c2)nc1 | > 5 |
| Cc1cc(C)cc(CN/C(=N\O)c2cccnc2OCc2ccccc2F)c1 | 1.96 (≈ 5.17 µM) |
| COc1ccc(Oc2cc(/C(=N/O)NCC(C)(C)C)ccn2)cc1 | 4.8 (≈ 14.6 µM) |
| CC1CCC(N/C(=N\O)c2ccnc(Oc3cccc4cccnc34)c2)CC1 (stereo not drawn) | > 5 |
| COCC(C)N/C(=N\O)c1ccnc(Oc2ccc(SC)cc2)c1 (stereo not drawn) | 0.45 (≈ 1.3 µM) |
| Cc1cc(C)cc(Oc2ccc(/C(=N/O)NC3CCC(C)CC3)cn2)c1 (stereo not drawn) | 2.93 (≈ 8.29 µM) |
| CN(/C(=N\O)c1ccnc(Oc2ccc(F)c(Cl)c2)c1)C1CCCCC1 | > 5 |
| Cc1ccc(Oc2ncccc2/C(=N/O)NCc2c(F)cccc2F)cc1 | 1.75 (≈ 4.74 µM) |
| CCCCc1ccc(-c2nc(C)c(C(=O)OC)o2)cc1 | > 5 |
| O/N=C(\NC1CCCC1)c1ccnc(Oc2cc(Cl)ccc2Cl)c1 | 10.8 (≈ 29.6 µM) |
| O/N=C(\NC1CC1)c1ccc(Oc2ccc3oc4ccccc4c3c2)nc1 | 36.6 (≈ 102 µM) |
| CCC(CC)N/C(=N\O)c1ccc(Oc2cccc3c2CCCC3)nc1 | 1.26 (≈ 3.56 µM) |
| O/N=C(\NC1CCC1)c1ccc(Oc2c(F)c(F)cc(F)c2F)nc1 | 2.58 (≈ 7.26 µM) |
| O/N=C(\NC1CCCCC1)c1ccnc(Oc2ccc(F)c(Cl)c2)c1 | 3.79 (≈ 10.4 µM) |
| CCOc1ccccc1-c1nc(CNC(C)C(C)(C)C)co1 (stereo not drawn) | 2.12 (≈ 7.01 µM) |
| COc1ccc(Oc2cc(/C(=N/O)NC3CCCCC3)ccn2)cc1 | 3.73 (≈ 10.9 µM) |
| COc1ccccc1Oc1ncccc1/C(=N/O)NCC1CC1 | 0.35 (≈ 1.12 µM) |
| CSc1ccccc1Oc1ncccc1/C(=N/O)NC1CCCC1 | 2.99 (≈ 8.71 µM) |

| SMILES | IC50 [µg/mL] |
| --- | --- |
| CC1CCc2ccccc2N1/C(=N\O)c1cccnc1Oc1ccc(-n2cncn2)cc1 (stereo not drawn) | 0.73 (≈ 1.71 µM) |
| CCCCc1ccc(-c2nc(-c3ccccc3)c(-c3ccccc3)o2)cc1 | > 5 |
| O/N=C(\NCC1CCCCC1)c1ccnc(Oc2cccc3c2CCCC3)c1 | 5 (≈ 13.2 µM) |
| O/N=C(\NC1CCCC1)c1ccnc(Oc2ccc(F)c(Cl)c2)c1 | 2.2 (≈ 6.29 µM) |
| Cc1ccc(Oc2ccc(/C(=N/O)NC3CCCC3)cn2)c(C)c1 | 21.8 (≈ 66.9 µM) |
| CCCCc1ccc(-c2nc(CNCc3ccc(C)cc3)co2)cc1 | 3.05 (≈ 9.12 µM) |
| Cc1ccc(/C(=N/O)NC2CCC2)c(Oc2ccc3oc4ccccc4c3c2)n1 | 0.39 (≈ 1.01 µM) |
| CSc1ccc(Oc2nc(C)ccc2/C(=N/O)NC2CCCC2)cc1C | 0.96 (≈ 2.58 µM) |
| COCC(C)N/C(=N\O)c1ccnc(Oc2ccc(Cl)cc2)c1 (stereo not drawn) | 0.36 (≈ 1.07 µM) |
| O/N=C(/c1cccnc1Oc1ccc(F)cc1Cl)N1CCCc2ccccc21 | 0.54 (≈ 1.36 µM) |
| CCC(CC)N/C(=N\O)c1cccnc1Oc1ccc(F)cc1 | 1.32 (≈ 4.16 µM) |
| CCCCc1ccc(-c2nc(CNCc3ccc(Cl)cc3)co2)cc1 | > 5 |
| COCCN/C(=N\O)c1ccc(C)nc1Oc1ccc(SC)c(C)c1 | > 5 |
| COc1ccc(Oc2cc(/C(=N/O)NC3CCC3)ccn2)cc1 | 4.78 (≈ 15.3 µM) |
| CCC(C)(C)N/C(=N\O)c1ccc(Oc2ccc3oc4ccccc4c3c2)nc1 | 1.6 (≈ 4.11 µM) |
| CCC(C)(C)N/C(=N\O)c1ccc(Oc2cc(C)cc(C)c2)nc1 | 2.36 (≈ 7.21 µM) |
| O/N=C(\NCC1CC1)c1cccnc1Oc1ccc(F)cc1 | 1.23 (≈ 4.08 µM) |
| Cc1ccc(/C(=N/O)NC2CCCCC2)c(Oc2ccc3ccccc3c2)n1 | 0.37 (≈ 0.985 µM) |
| CCOc1ccccc1-c1nc(CNC(C)C2CCCCC2)co1 (stereo not drawn) | 1.94 (≈ 5.91 µM) |
| Cc1cc(C)cc(Oc2nc(C)ccc2/C(=N/O)N2c3ccccc3CCC2C)c1 (stereo not drawn) | 1.6 (≈ 3.98 µM) |
| CC1CCCN1/C(=N\O)c1ccc(Oc2ccc3ccccc3c2)nc1 (stereo not drawn) | 2.32 (≈ 6.68 µM) |
| O/N=C(\NC1CCCC1)c1ccnc(Oc2ccc(F)c(F)c2)c1 | 2.94 (≈ 8.82 µM) |
